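Cells were grown in 96-well plates and exposed to each compound for 48 hours at five concentrations; endpoints were interpolated linearly between bracketing concentrations, or set to the highest concentration if not reached. GI50 is the concentration that inhibits growth by half. TGI marks complete inhibition of growth.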
Key:
Experiment in all cases: DTP human tumour cell line panel, 48 h
NCI-H460 lung = test system: NCI-H460 lung
NCI-H226 lung = test system: NCI-H226 lung
TK-10 renal = test system: TK-10 renal
K-562 leukemia = test system: K-562 leukemia
SN12C renal = test system: SN12C renal
UACC-62 melanoma = test system: UACC-62 melanoma
SNB-19 CNS = test system: SNB-19 CNS
OVCAR-4 ovarian = test system: OVCAR-4 ovarian
MOLT-4 leukemia = test system: MOLT-4 leukemia
MALME-3M melanoma = test system: MALME-3M melanoma
LOX IMVI melanoma = test system: LOX IMVI melanoma

SMILES	GI50 (NCI-H460 lung) [µM]	TGI (NCI-H460 lung) [µM]	GI50 (NCI-H226 lung) [µM]	TGI (NCI-H226 lung) [µM]	GI50 (TK-10 renal) [µM]	TGI (TK-10 renal) [µM]	GI50 (K-562 leukemia) [µM]	TGI (K-562 leukemia) [µM]	GI50 (SN12C renal) [µM]	TGI (SN12C renal) [µM]	GI50 (UACC-62 melanoma) [µM]	TGI (UACC-62 melanoma) [µM]	GI50 (SNB-19 CNS) [µM]	TGI (SNB-19 CNS) [µM]	GI50 (OVCAR-4 ovarian) [µM]	TGI (OVCAR-4 ovarian) [µM]	GI50 (MOLT-4 leukemia) [µM]	TGI (MOLT-4 leukemia) [µM]	TGI (MALME-3M melanoma) [µM]	TGI (LOX IMVI melanoma) [µM]
Nc1nc(Nc2ccc(OCc3cccc(F)c3)cc2)c2c(n1)[nH]c1ccc(O)cc12	3.25	9.37	24.2	54.6	3.49	16.4	2.66	6.65	2.08	4.56	1.95	4.09	4.4	21.7	2.18	6.04	2.77	8.34		
O=c1c2cc3c(=O)n(CCc4ccccc4CO)c(=O)c3cc2c(=O)n1CCc1ccccc1CO		> 100		> 100		> 100		> 100		> 100		> 100		> 100		> 100		> 100	> 100	> 100
c1ccc([P+](Cc2csnn2)(c2ccccc2)c2ccccc2)cc1		> 100		> 100		> 100				> 100		> 100		> 100		> 100		> 100	> 100	> 100
CCOC(=O)c1csc(NC(=O)CCCC#N)n1		> 100		> 100		> 100		> 100				> 100		> 100		> 100		> 100		> 100
CCOC(=O)C1=C(C)NC(=O)N([N+](=O)[O-])C1c1ccccc1C(F)(F)F (stereo not drawn)		> 100		> 100		> 100		> 100		> 100		> 100		> 100		> 100		> 100	> 100	> 100
Cc1cc(C)nc(NS(=O)(=O)c2ccc(Nc3c4ccccc4nc4c(C(=O)NCCO)cccc34)cc2)n1		> 100						> 100		> 100		> 100		> 100		97.5		> 100	28.7	25.5
COc1ccc(CN2C(=O)C(=O)N(C)C2=O)c2ccccc12		> 10		> 10		> 10		> 10		> 10		> 10		> 10		> 10		> 10	> 10	> 10
O=C(NN1C(=O)CSC1c1ccc(Cl)c(Cl)c1)c1ccncc1 (stereo not drawn)						> 100		> 100		> 100		> 100		> 100		> 100		> 100	> 100	> 100

Reference: PubChem BioAssay (NCI)
